# Results as given in patent US20250382273A1 (INSTITUT NATIONAL DE LA SANTE ET DE LA RECHERCHE MEDICALE, priority 2022, published 2025).
# System: M. tuberculosis H37Rv_DdnL49P_gfp
# Format: cell-based, Mycobacterium tuberculosis
# Conditions: in combination with pretomanid, unit inferred; read-out: average EC50 H37Rv_DdnL49P_gfp
row,Compound,EC50
1,"O=C(Nc1nc2ccc(-c3ccc(C(F)(F)F)cc3)cc2s1)[C@@H]1C2C=CC(C2)[C@@H]1C(=O)O (stereo partly shown) [Example 60, 3-[[6-[4-(trifluoromethyl)phenyl]-1,3-benzothiazol-2-yl]carbamoyl]bicyclo[2.2.1]hept-5-ene-2-carboxylic acid]",0.48 µM
2,"CC(C)(C)C#Cc1ccc2nc(NC(=O)[C@@H]3C4C=CC(C4)[C@@H]3C(=O)O)sc2c1 (stereo partly shown) [Example 78, 3-[[6-(3,3-dimethylbut-1-ynyl)-1,3-benzothiazol-2-yl]carbamoyl]bicyclo [2.2.1]hept-5-ene-2-carboxylic acid]",0.22 µM
3,"O=C1[C@@H]2[C@H](C(=O)N1c1nc3ccc(Oc4ccc(C(F)(F)F)cn4)cc3s1)[C@@H]1C=C[C@H]2C1 [Example 36, (1R,2S,6R,7S)-4-[6-[[5-(trifluoromethyl)-2-pyridyl]oxy]-1,3-benzothiazol-2-yl]-4-azatricyclo[5.2.1.02,6]dec-8-ene-3,5-dione]",0.49 µM

# Same assay, conditions: read-out: EC50 H37Rv_DdnL49P_gfp
row,Compound,EC50
1,"O=C(Nc1nc2ccc(Cc3ccccc3)cc2s1)[C@@H]1C2C=CC(C2)[C@@H]1C(=O)O (stereo partly shown) [Example 20, 3-[(6-benzyl-1,3-benzothiazol-2-yl)carbamoyl]bicyclo[2.2.1]hept-5-ene-2-carboxylic acid]",< 1 µM
2,"O=C(Nc1nc2ccc(I)cc2s1)[C@@H]1C2C=CC(C2)[C@@H]1C(=O)O (stereo partly shown) [Example 49, 3-[(6-iodo-1,3-benzothiazol-2-yl)carbamoyl]bicyclo[2.2.1]hept-5-ene-2-carboxylic acid]",1 to 5 µM
3,"O=C1[C@@H]2[C@H](C(=O)N1c1nc3ccc(-c4ccc(O)cc4)cc3s1)[C@@H]1C=C[C@H]2C1 [Example 63, (1R,2S,6R,7S)-4-[6-(4-hydroxyphenyl)-1,3-benzothiazol-2-yl]-4-azatricyclo[5.2.1.02,6]dec-8-ene-3,5-dione]",5 to 10 µM
4,"Cc1ccc2nc(NC(=O)[C@@H]3C4CCC(C4)[C@@H]3C(=O)O)sc2c1 (stereo in doubt) [Example 3, 3-[(6-methyl-1,3-benzothiazol-2-yl)carbamoyl]norbornane-2-carboxylic acid]",1 to 5 µM
5,"O=C1[C@@H]2C3C=CC(C3)[C@@H]2C(=O)N1c1nc2ccc(Nc3ccnc(C(F)(F)F)c3)cc2s1 [Example 90, 4-[6-[[2-(trifluoromethyl)-4-pyridyl]amino]-1,3-benzothiazol-2-yl]-4-azatricyclo[5.2.1.02,6]dec-8-ene-3,5-dione]",< 1 µM
6,"N#Cc1ccc2nc(NC(=O)[C@@H]3C4C=CC(C4)[C@@H]3C(=O)O)sc2c1 (stereo partly shown) [Example 40, 3-[(6-cyano-1,3-benzothiazol-2-yl)carbamoyl]bicyclo[2.2.1]hept-5-ene-2-carboxylic acid]",5 to 10 µM
7,"Cc1ccnc(Oc2ccc3nc(NC(=O)[C@@H]4C5C=CC(C5)[C@@H]4C(=O)O)sc3c2)c1 (stereo partly shown) [Example 29, 3-[[6-[(4-methyl-2-pyridyl)oxy]-1,3-benzothiazol-2-yl]carbamoyl]bicyclo[2.2.1]hept-5-ene-2-carboxylic acid]",< 1 µM
8,"O=C(Nc1nc2cc3c(cc2s1)OCCO3)[C@@H]1C2C=CC(C2)[C@@H]1C(=O)O (stereo partly shown) [Example 10, 3-(6,7-dihydro-[1,4]dioxino[2,3-f][1,3]benzothiazol-2-ylcarbamoyl) bicyclo[2.2.1]hept-5-ene-2-carboxylic acid]",10 to 20 µM
9,O=C1[C@@H]2C3C=CC(C3)[C@@H]2C(=O)N1c1nc2ccc(Nc3ccc(C(F)(F)F)cn3)cc2s1 [Example 95],< 1 µM
10,"O=C1[C@@H]2[C@H](C(=O)N1c1nc3ccc(OC(F)(F)F)cc3s1)[C@@H]1C=C[C@H]2C1 [Example 45, (1R,2S,6R,7S)-4-[6-(trifluoromethoxy)-1,3-benzothiazol-2-yl]-4-azatricyclo[5.2.1.02,6]dec-8-ene-3,5-dione]",5 to 10 µM
11,"O=C(Nc1nc2ccc(-c3ccc(C(F)(F)F)cc3)cc2s1)[C@@H]1C2C=CC(C2)[C@@H]1C(=O)O (stereo partly shown) [Example 60, 3-[[6-[4-(trifluoromethyl)phenyl]-1,3-benzothiazol-2-yl]carbamoyl]bicyclo[2.2.1]hept-5-ene-2-carboxylic acid]",< 1 µM
12,"CC(C)(C)C#Cc1ccc2nc(NC(=O)[C@@H]3C4C=CC(C4)[C@@H]3C(=O)O)sc2c1 (stereo partly shown) [Example 78, 3-[[6-(3,3-dimethylbut-1-ynyl)-1,3-benzothiazol-2-yl]carbamoyl]bicyclo [2.2.1]hept-5-ene-2-carboxylic acid]",< 1 µM
13,"O=C1[C@@H]2[C@H](C(=O)N1c1nc3ccc(Oc4ccc(C(F)(F)F)cn4)cc3s1)[C@@H]1C=C[C@H]2C1 [Example 36, (1R,2S,6R,7S)-4-[6-[[5-(trifluoromethyl)-2-pyridyl]oxy]-1,3-benzothiazol-2-yl]-4-azatricyclo[5.2.1.02,6]dec-8-ene-3,5-dione]",< 1 µM
14,"O=C1[C@@H]2[C@H](C(=O)N1c1nc3ccc(Oc4ccccc4)cc3s1)[C@@H]1C=C[C@H]2C1 [Example 19, (1R,2S,6R,7S)-4-(6-phenoxy-1,3-benzothiazol-2-yl)-4-azatricyclo[5.2.1.02,6]dec-8-ene-3,5-dione]",1 to 5 µM
15,"O=C(Nc1nc2ccc(Nc3ccc(OC(F)(F)F)cn3)cc2s1)[C@@H]1C2C=CC(C2)[C@@H]1C(=O)O (stereo partly shown) [Example 93, 3-[[6-[[5-(trifluoromethoxy)-2-pyridyl]amino]-1,3-benzothiazol-2-yl]carbamoyl]bicyclo[2.2.1]hept-5-ene-2-carboxylic acid]",< 1 µM
16,"O=C1[C@@H]2[C@H](C(=O)N1c1nc3ccc(-c4ccc(C(F)(F)F)nc4)cc3s1)[C@@H]1C=C[C@H]2C1 [Example 67, (1R,2S,6R,7S)-4-[6-[6-(trifluoromethyl)-3-pyridyl]-1,3-benzothiazol-2-yl]-4-azatricyclo [5.2.1.02,6]dec-8-ene-3,5-dione]",1 to 5 µM
17,"O=C(Nc1nc2ccc(Nc3ccc(F)cn3)cc2s1)[C@@H]1C2C=CC(C2)[C@@H]1C(=O)O (stereo partly shown) [Example 86, 3-[[6-[(5-fluoro-2-pyridyl)amino]-1,3-benzothiazol-2-yl]carbamoyl]bicyclo[2.2.1]hept-5-ene-2-carboxylic acid]",< 1 µM
18,"C#CCOc1ccc2nc(N3C(=O)[C@@H]4[C@H](C3=O)[C@@H]3C=C[C@H]4C3)sc2c1 [Example 73, (1R,2S,6R,7S)-4-(6-prop-2-ynoxy-1,3-benzothiazol-2-yl)-4-azatricyclo[5.2.1.02,6]dec-8-ene-3,5-dione]",< 1 µM
19,O=C(Nc1nc2ccc(-c3ccccc3)cc2s1)[C@@H]1C2C=CC(C2)[C@@H]1C(=O)O (stereo partly shown) [Example 51],1 to 5 µM
20,"COc1cc(Nc2ccc3nc(N4C(=O)[C@@H]5C6C=CC(C6)[C@@H]5C4=O)sc3c2)ccn1 [Example 92, 4-[6-[(2-methoxy-4-pyridyl)amino]-1,3-benzothiazol-2-yl]-4-azatricyclo[5.2.1.02,6]dec-8-ene-3,5-dione]",1 to 5 µM
21,"O=C(Nc1nc2ccc(C3CCCCC3)cc2s1)[C@@H]1C2C=CC(C2)[C@@H]1C(=O)O (stereo partly shown) [Example 52, 3-[(6-cyclohexyl-1,3-benzothiazol-2-yl)carbamoyl]bicyclo[2.2.1]hept-5-ene-2-carboxylic acid]",1 to 5 µM
22,"Cc1ccnc(Nc2ccc3nc(NC(=O)[C@@H]4C5C=CC(C5)[C@@H]4C(=O)O)sc3c2)c1 (stereo partly shown) [Example 84, 3-[[6-[(4-methyl-2-pyridyl)amino]-1,3-benzothiazol-2-yl]carbamoyl]bicyclo[2.2.1]hept-5-ene-2-carboxylic acid]",1 to 5 µM
23,"O=C(Nc1nc2ccc(Nc3cccc(F)n3)cc2s1)[C@@H]1C2C=CC(C2)[C@@H]1C(=O)O (stereo partly shown) [Example 88, 3-[[6-[(6-fluoro-2-pyridyl)amino]-1,3-benzothiazol-2-yl]carbamoyl]bicyclo[2.2.1]hept-5-ene-2-carboxylic acid]",< 1 µM
24,"O=C1[C@@H]2[C@H](C(=O)N1c1nc3ccc(Oc4cccc(C(F)(F)F)n4)cc3s1)[C@@H]1C=C[C@H]2C1 [Example 34, (1R,2S,6R,7S)-4-[6-[[6-(trifluoromethyl)-2-pyridyl]oxy]-1,3-benzothiazol-2-yl]-4-azatricyclo[5.2.1.02,6]dec-8-ene-3,5-dione]",1 to 5 µM
25,"O=C(Nc1nc2ccc(Oc3ccc(C(F)(F)F)cc3)cc2s1)[C@@H]1C2C=CC(C2)[C@@H]1C(=O)O (stereo partly shown) [Example 22, 3-[[6-[4-(trifluoromethyl)phenoxy]-1,3-benzothiazol-2-yl]carbamoyl]bicyclo[2.2.1]hept-5-ene-2-carboxylic acid]",1 to 5 µM
